{"source": "patent US4661294A", "about": "“Biologically active 1-thio derivatives of vitamin D” (The General Hospital Corporation, priority 1985, dated 1987)", "key": {"[1]": {"conditions": "literature reports; cited from earlier work"}, "human fibroblasts": {"tested_on": "human fibroblasts", "experiment": "human fibroblast cell proliferation", "assay_type": "cell-based", "conditions": "for effect on the inhibitory effect of 1-alpha,25-dihydroxyvitamin D3 on cell generation: added to the 1-alpha,25-dihydroxy compound", "method": "FIG. 4 is a graph comparing the effects of ethanol ( ), ethanol plus 1-alpha,25-dihydroxyvitamin D3 ( ), and 1-beta-thio-25-hydroxyvitamin D3 and 1-alpha,25-dihydroxyvitamin D3 ( ) on human fibroblast cell proliferation.\nTo confirm this, the effects of various compounds on cell proliferation rates were studied, using human fibroblasts to evaluate activity. Human fibroblasts were prepared as described by Clemens, J. Clin. Endocrinol. Met., 56: 197 (1983). In the study, 2.5×10^5 cells, in quadruplicate, were exposed to (a) 95% ethanol; (b) ethanol plus 1-alpha-25-dihydroxyvitamin D3 ( ); or (c) 1-beta-thio-25-hydroxyvitamin D3 plus 1-alpha, 25-dihydroxyvitamin D3 ( ). As may be seen from FIG. 4, the 1-alpha-25-dihydroxy-vitamin D3 inhibited cell generation by about 30% ( ). […] Further, the 1-thio compound alone had no effect on cell generation time (data not shown)."}, "[2]": {"biological_target": "T1, chick cytosolic receptor (1,25-dihydroxyvitamin receptor site) (Gallus gallus, UniProt O42392)", "T1 sequence (O42392 1-451)": "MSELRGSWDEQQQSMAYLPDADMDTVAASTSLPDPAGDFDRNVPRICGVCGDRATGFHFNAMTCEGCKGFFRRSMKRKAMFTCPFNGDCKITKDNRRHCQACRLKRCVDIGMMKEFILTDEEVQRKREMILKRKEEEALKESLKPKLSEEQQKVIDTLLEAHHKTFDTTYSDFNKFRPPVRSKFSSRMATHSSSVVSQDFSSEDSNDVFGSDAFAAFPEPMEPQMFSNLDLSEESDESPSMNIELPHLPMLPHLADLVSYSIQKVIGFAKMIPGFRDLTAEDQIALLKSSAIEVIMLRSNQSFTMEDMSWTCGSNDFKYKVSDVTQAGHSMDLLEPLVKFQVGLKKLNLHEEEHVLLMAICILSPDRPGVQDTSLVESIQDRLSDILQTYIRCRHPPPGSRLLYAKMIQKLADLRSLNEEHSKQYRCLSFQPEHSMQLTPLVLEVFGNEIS", "experiment": "competition with 3H-1,25-dihydroxyvitamin D3 for receptor site (procedure of Eisman et al.)", "assay_type": "binding", "source_text": "FIG. 3 is a graph comparing the binding characteristics of 1-alpha,25-dihydroxyvitamin D3 ( ) and 1-beta-thio-25-hydroxyvitamin D3 (Δ) using chick cytosolic receptor.\nThus, the 1-beta-thio-25-hydroxyvitamin D3 can be used as a biologically active analogue of the natural compound."}}, "data": [{"smiles": "C=C1/C(=C\\C=C2/CCC[C@]3(C)[C@@H]([C@H](C)CCCC(C)(C)F)CC[C@@H]23)C[C@@H](O)C[C@@H]1F", "note": "[1-alpha-25-difluoro vitamin D3]", "values": [{"measurement": "biological activity", "setting": "[1]", "value": "biologically inert"}]}, {"smiles": "C=C1/C(=C\\C=C2/CCC[C@]3(C)[C@@H]([C@H](C)CCCC(C)(C)O)CC[C@@H]23)C[C@@H](O)C[C@@H]1O", "note": "[1-alpha-25-dihydroxy-vitamin D3, 1-alpha,25-dihydroxyvitamin D3, reference compound]", "values": [{"measurement": "inhibition of cell generation", "setting": "human fibroblasts; human fibroblasts, 2.5×10^5 cells, FIG. 4", "value": "about 30%"}]}, {"smiles": "C=C1/C(=C\\C=C2/CCC[C@]3(C)[C@@H]([C@H](C)CCCC(C)(C)O)CC[C@@H]23)C[C@@H](O)C[C@H]1S", "note": "[1-beta-thio-25-hydroxyvitamin D3, 1-beta-thio-25-hydroxy vitamin D3]", "values": [{"measurement": "competition with 3H-1,25-dihydroxyvitamin D3 for the receptor site / recognition by the cytosol receptor site", "setting": "[2]; FIG. 3", "value": "able to compete"}, {"measurement": "competition with 3H-1,25-dihydroxyvitamin D3 for the receptor site / recognition by the cytosol receptor site", "setting": "[2]; FIG. 3, listed as 1-beta-thio-hydrovitamin D3", "value": "recognized by the cytosol receptor site"}, {"measurement": "effect on the inhibitory effect of 1-alpha,25-dihydroxyvitamin D3 on cell generation", "setting": "human fibroblasts; human fibroblasts, FIG. 4", "value": "blocked the inhibitory effect"}, {"measurement": "effect on the inhibitory effect of 1-alpha,25-dihydroxyvitamin D3 on cell generation", "setting": "human fibroblasts; human fibroblasts, FIG. 4, listed as 1-beta-thio-hydrovitamin D3", "value": "blocks the ability of the 1,25-dihydroxy compound from affecting in vitro fibroblast cell division"}, {"measurement": "effect on cell generation time", "setting": "human fibroblasts; compound alone (data not shown)", "value": "no effect"}]}, {"smiles": "C=C1/C(=C\\C=C2/CCC[C@]3(C)[C@@H]([C@H](C)CCCC(C)C)CC[C@@H]23)C[C@@H](O)CC1F", "note": "(some centres unmarked) [1-fluoro vitamin D3]", "values": [{"measurement": "biological activity", "setting": "[1]", "value": "possess biological activity"}]}]}
